Reference: article PMC6858497 (The Journal of physiology, 2019)
“And” between values parts separate entries of the source, which are not always exact repeats. Equal entries are not always repeated. Where two headings read alike, the source gives them in different places.

Legend:
[1] = test system: NMDA receptors in cerebellar Golgi cells (thought to be mainly GluN1/2B/2D); conditions: single-channel recordings, outside-out patches; ref Brickley et al., 2003; cited from earlier work
GluN1–1b/2B = GluN1–1b/2B (Rattus norvegicus, UniProt P35439+Q00960); test: Two-electrode voltage-clamp recordings, Xenopus oocytes; assay type: cell-based; conditions: isoform 1b
GluN1–1b/2BC1/2DC2 = GluN1–1b/2BC1/2DC2 (Rattus norvegicus, UniProt P35439+Q00959+Q00960+Q62645, A876H/F846L/G856D/H848F/K857R/M851T/M860L/Q845K/R869K/V861L/V866F); test: as above; assay type: cell-based; conditions: isoform 1b
GluN1–1a/2B = GluN1–1a/2B (Rattus norvegicus, UniProt P35439+Q00960); test: as above; assay type: cell-based; conditions: for Spermine modulation (% control): 100 μM spermine, −20 mV
Sequence of GluN1–1a/2B (Q00960 27-1482, other chains not shown): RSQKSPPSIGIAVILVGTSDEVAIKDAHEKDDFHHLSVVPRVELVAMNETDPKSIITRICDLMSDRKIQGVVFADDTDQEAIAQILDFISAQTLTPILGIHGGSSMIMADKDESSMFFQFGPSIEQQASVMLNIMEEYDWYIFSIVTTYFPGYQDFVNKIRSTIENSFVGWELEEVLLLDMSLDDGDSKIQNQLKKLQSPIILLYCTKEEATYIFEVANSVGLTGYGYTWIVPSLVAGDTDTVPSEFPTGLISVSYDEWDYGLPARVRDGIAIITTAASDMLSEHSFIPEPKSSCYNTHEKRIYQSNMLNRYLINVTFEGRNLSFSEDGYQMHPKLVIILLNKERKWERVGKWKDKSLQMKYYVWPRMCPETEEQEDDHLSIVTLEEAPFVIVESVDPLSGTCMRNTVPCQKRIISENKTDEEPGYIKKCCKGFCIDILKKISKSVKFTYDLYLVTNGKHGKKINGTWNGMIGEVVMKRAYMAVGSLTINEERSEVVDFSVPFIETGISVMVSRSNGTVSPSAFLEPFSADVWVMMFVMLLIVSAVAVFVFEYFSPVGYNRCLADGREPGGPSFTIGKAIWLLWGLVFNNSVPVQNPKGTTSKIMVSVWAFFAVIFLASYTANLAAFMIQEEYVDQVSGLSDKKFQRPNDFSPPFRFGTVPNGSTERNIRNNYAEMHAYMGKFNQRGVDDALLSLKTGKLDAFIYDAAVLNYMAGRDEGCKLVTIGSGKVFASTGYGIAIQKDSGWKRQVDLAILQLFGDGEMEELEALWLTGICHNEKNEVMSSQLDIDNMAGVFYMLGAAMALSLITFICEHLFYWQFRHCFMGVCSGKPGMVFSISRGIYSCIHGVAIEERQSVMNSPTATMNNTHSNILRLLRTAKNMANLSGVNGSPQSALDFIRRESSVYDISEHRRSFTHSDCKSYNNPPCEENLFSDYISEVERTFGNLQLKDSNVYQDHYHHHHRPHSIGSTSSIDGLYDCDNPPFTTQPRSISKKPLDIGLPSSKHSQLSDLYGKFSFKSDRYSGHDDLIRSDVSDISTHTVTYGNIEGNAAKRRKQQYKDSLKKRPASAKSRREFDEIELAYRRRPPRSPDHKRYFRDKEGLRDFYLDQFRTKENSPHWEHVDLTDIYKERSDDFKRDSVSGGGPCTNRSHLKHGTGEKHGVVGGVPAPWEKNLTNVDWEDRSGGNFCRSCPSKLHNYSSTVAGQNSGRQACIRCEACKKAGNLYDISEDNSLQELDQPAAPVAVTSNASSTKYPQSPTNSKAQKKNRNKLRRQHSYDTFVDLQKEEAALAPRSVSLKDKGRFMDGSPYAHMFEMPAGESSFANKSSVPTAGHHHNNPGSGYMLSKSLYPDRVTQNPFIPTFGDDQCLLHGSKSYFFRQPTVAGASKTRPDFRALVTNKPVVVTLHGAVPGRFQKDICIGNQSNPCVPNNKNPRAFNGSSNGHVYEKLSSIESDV

GluN1–1a/2BC1/2DC2 = GluN1–1a/2BC1/2DC2 (Rattus norvegicus, UniProt P35439+Q00959+Q00960+Q62645, A876H/F846L/G856D/H848F/K857R/M851T/M860L/Q845K/R869K/V861L/V866F); test: as above; assay type: cell-based; conditions: for Spermine modulation (% control): 100 μM spermine, −20 mV
GluN1–1a/2A = GluN1–1a/2A (Rattus norvegicus, UniProt P35439+Q00959); conditions: 100 μM spermine, −20 mV
Sequence of GluN1–1a/2A (Q00959 23-1464, other chains not shown): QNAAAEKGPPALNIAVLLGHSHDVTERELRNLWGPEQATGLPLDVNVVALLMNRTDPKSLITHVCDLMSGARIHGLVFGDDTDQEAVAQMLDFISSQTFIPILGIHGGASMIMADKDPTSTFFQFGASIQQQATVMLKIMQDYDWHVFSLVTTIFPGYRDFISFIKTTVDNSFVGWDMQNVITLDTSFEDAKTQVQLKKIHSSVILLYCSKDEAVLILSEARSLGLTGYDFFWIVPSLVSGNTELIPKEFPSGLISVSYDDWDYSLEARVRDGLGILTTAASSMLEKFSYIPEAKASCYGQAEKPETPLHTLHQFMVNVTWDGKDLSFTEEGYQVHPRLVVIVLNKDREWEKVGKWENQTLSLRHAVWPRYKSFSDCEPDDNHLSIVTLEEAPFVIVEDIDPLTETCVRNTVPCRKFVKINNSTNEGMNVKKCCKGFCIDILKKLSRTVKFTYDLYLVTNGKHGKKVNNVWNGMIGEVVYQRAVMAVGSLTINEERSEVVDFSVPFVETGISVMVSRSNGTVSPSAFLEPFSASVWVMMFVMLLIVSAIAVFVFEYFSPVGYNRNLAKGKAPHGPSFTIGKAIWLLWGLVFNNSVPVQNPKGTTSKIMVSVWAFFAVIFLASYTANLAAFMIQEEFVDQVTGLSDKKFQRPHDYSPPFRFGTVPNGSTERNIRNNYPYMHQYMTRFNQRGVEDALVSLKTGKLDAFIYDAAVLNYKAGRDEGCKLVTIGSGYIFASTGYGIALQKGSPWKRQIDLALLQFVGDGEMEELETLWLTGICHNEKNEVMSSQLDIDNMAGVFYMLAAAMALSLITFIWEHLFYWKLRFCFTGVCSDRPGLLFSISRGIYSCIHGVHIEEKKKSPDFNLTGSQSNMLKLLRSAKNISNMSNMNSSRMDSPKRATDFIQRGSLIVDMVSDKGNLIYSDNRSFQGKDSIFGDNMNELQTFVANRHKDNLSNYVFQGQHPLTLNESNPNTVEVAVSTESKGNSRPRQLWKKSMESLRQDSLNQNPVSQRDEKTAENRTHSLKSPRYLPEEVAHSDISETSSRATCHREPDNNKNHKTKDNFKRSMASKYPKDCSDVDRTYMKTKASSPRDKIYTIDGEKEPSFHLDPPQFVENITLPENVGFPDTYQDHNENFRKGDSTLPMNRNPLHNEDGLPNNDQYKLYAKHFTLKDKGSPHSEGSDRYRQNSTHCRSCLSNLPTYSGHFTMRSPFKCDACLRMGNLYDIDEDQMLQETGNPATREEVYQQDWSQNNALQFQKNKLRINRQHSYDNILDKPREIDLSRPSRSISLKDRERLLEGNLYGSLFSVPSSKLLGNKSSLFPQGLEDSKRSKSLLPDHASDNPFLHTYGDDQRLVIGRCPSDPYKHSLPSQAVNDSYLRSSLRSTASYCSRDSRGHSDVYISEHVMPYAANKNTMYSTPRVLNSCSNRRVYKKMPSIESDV

GluN1–1a/2AC1/2BC2 = GluN1–1a/2AC1/2BC2 (Rattus norvegicus, UniProt P35439+Q00959+Q00960, A876H/F846L/G856D/H848F/K857R/M851T/M860L/Q845K/V861L); conditions: 100 μM spermine, −20 mV
GluN1–1a/2D = GluN1–1a/2D (Rattus norvegicus, UniProt P35439+Q62645); test: Two-electrode voltage-clamp recordings, Xenopus oocytes; assay type: cell-based; conditions: for Spermine modulation (% control): 100 μM spermine, −20 mV
Sequence of GluN1–1a/2D (Q62645 28-1323, other chains not shown): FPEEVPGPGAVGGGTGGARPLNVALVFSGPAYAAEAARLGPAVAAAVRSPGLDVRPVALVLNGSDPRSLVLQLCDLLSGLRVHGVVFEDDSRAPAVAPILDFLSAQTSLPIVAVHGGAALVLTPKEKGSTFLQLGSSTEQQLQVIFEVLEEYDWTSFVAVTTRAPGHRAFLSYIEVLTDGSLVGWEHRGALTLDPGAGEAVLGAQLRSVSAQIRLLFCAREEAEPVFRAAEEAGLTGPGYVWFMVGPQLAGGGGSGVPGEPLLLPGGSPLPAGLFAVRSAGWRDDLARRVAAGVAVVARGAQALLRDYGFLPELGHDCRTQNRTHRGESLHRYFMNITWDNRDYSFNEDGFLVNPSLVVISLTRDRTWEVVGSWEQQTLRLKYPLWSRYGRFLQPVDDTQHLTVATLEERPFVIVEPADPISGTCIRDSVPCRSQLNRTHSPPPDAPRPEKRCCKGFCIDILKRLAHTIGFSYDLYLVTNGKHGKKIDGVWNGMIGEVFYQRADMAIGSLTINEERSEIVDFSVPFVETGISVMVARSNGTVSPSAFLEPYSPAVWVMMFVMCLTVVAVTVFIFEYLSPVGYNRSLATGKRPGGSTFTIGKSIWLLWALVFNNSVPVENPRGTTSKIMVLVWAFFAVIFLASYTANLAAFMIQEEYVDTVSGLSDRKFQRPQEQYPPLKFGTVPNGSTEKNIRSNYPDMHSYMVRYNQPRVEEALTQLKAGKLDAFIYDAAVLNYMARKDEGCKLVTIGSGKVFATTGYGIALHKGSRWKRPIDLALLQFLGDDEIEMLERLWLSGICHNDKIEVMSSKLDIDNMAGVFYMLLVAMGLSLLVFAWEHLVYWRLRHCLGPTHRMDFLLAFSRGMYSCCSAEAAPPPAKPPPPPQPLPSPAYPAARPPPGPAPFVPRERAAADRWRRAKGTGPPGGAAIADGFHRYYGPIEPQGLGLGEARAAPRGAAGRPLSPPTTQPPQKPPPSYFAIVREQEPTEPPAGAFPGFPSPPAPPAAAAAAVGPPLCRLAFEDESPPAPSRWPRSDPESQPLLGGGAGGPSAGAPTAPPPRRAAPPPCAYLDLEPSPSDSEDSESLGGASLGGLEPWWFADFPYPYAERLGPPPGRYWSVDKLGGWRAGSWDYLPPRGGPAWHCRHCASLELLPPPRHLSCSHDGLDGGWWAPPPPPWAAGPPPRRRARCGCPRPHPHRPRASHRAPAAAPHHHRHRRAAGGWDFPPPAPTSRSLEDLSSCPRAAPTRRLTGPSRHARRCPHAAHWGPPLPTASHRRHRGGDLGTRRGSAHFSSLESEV

[2] = test system: NMDAR-EPSCs in hippocampal interneurons (CA1 s.r./s.l.m.); test: Whole-cell patch-clamp of NMDAR-EPSCs in acute hippocampal slices; assay type: cell-based, mouse
[3] = test system: NMDAR-EPSCs in hippocampal CA1 pyramidal cells; test: as above; assay type: cell-based, mouse; conditions: 100 μM; +40 mV; P21–28 slices
[4] = at 100 μM, pH 7.4, holding potential −20 mV, isoform 1a

CC(C(O)c1ccc(O)cc1)N1CCC(Cc2ccccc2)CC1 (centres unmarked) [ifenprodil]
IC50 [1]: 129 nM
maximal inhibition [1]: 71.5%
nH (Hill coefficient) (GluN1–1b/2B; inhibition): 1.8
maximal inhibition (GluN1–1b/2B): 88%
nH (Hill coefficient) (GluN1–1b/2BC1/2DC2; inhibition): 1.1
maximal inhibition (GluN1–1b/2BC1/2DC2): 69%
nH (Hill coefficient) (GluN1–1a/2B; inhibition, isoform 1a): 1.1
maximal inhibition (GluN1–1a/2B; isoform 1a): ~ 95%
nH (Hill coefficient) (GluN1–1a/2BC1/2DC2; inhibition, isoform 1a): 1.1
maximal inhibition (GluN1–1a/2BC1/2DC2; isoform 1a): ~ 65%

NCCCNCCCCNCCCN [spermine]
Spermine modulation (% control) (GluN1–1a/2A; pH 6.8): 79 ± 1 % control
Spermine modulation (% control) (GluN1–1a/2A; pH 7.4): 72 % control and 72 ± 1 % control
Spermine modulation (% control) (GluN1–1a/2AC1/2BC2; pH 6.8): 95 ± 0.1 % control
Spermine modulation (% control) (GluN1–1a/2AC1/2BC2; pH 7.4): 80 ± 1 % control
Spermine modulation (% control) (GluN1–1a/2D; pH 6.8): 82 ± 1 % control
Spermine modulation (% control) (GluN1–1a/2D; pH 7.4): 71 ± 0.4 % control
Spermine modulation (% control) (GluN1–1a/2D; pH 7.4, listed as Spermine): 71 % control
Relative Imax (GluN1–1a/2D; [4]): 71 ± 0.4%
NMDAR-EPSC peak amplitude, % of baseline ([2]; 100 μM, +40 mV, P21–28 slices): 137 ± 13 % of baseline
effect on EPSC decay time ([2]; treatment versus baseline, paired t test, 10 μM (spermine 100 μM)): unchanged
NMDAR-EPSC peak amplitude, % of baseline [3]: 95 ± 5 % of baseline
Spermine modulation (% control) (GluN1–1a/2B; pH 6.8): 585 ± 29 % control
Spermine modulation (% control) (GluN1–1a/2B; pH 7.4): 211 ± 6 % control
Spermine modulation (% control) (GluN1–1a/2B; pH 7.4, listed as Spermine): 211 % control
Relative Imax (GluN1–1a/2B; [4]): 211 ± 6%
Spermine modulation (% control) (GluN1–1a/2BC1/2DC2; pH 6.8): 233 ± 10 % control
Spermine modulation (% control) (GluN1–1a/2BC1/2DC2; pH 7.4): 150 ± 2 % control
Spermine modulation (% control) (GluN1–1a/2BC1/2DC2; pH 7.4, listed as Spermine): 150 % control
Relative Imax (GluN1–1a/2BC1/2DC2; [4]): 150 ± 2%
